Experimental findings from patent US12630551B2, “Endocyclic pyrimidinone compounds, and preparation methods, compositions and use thereof” (NEUSCO BIOTECH LIMITED, priority 2020, dated 2026) are described below.

SMILES strings stand for the structures.

The target in test [1] is T1, Lp-PLA2 enzyme in human plasma (Homo sapiens, UniProt Q13093).
T1 construct: from tissue; host or cells: mixed (pooled) human plasma
T1 sequence (Q13093 22-441): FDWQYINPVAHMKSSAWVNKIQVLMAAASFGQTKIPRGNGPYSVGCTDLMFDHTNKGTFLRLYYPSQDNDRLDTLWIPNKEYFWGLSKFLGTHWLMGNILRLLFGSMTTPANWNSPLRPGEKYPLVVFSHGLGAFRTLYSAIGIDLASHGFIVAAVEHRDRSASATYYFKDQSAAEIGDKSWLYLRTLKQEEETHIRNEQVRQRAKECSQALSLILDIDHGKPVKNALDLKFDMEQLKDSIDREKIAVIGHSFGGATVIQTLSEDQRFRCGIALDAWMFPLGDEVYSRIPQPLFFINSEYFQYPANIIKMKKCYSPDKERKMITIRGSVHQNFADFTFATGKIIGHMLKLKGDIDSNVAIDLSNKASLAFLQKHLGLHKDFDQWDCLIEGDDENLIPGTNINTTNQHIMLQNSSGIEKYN
In words: Human plasma Lp-PLA2 assay (Thio-PAF assay). The format is biochemical. The conditions noted are these: mixed human plasma, 2-thio-PAF substrate, CPM, 30-min pre-incubation, fluorescence ex 380/em 485; for IC50: read-out: Thio-PAF (pIC50) (converted). The protocol: (2) Human Plasma Lp-PLA2 Assay (Also Known as Thio-PAF Assay) The human plasma assay was conducted using the […] analog of PAF (phosphatidylcholine). After hydrolysis, it would generate phospholipids containing free sulfhydryl groups, which would be subjected to Michael addition with CPM to generate fluorescence-enhancing maleimide. Continuous quantitative analysis of thiol could be conducted by detecting the fluorescence intensity. This assay can be used to detect the inhibitory activity of the Lp-PLA2 inhibitor on the Lp-PLA2 enzyme in human plasma. […] The plate was centrifuged at 500 rpm for 10 seconds. […] Two minutes later, the reaction was quenched with 5 μl of 5% trifluoroacetic acid.

The target of test [2] is T2, recombinant human Lp-PLA2 enzyme (Homo sapiens, UniProt Q13093).
T2 sequence (Q13093 22-441): T1 sequence (Q13093 22-441)
In words: Recombinant human Lp-PLA2 (rhLp-PLA2) assay (PED6 assay). The format is biochemical. The note with it: PED6 substrate, enzyme 4 nM or 110 pM, 30-min pre-incubation, fluorescence ex 480/em 540; for IC50: read-out: rhLp-PLA2 (pIC50) (converted). The method, then:
(1) Recombinant Human Lp-PLA2 (rhLp-PLA2) Assay (Also Known as PED6 Assay) PED6 is a fluorescently labeled phospholipid, which could be purchased directly from Invitogene or Molecular Probes. PED6 has a fluorescence quenching […] and a Bodipy fluorescein (FL) group at the sn2 position. Once cleaved by an Lp-PLA2 enzyme, it will release the FL group, resulting in enhanced fluorescence. […] The plate was centrifuged at 500 rpm for 10 seconds.

For `O=c1nc(OCc2cc(F)cc(F)c2)cc2n1C[C@H]1CCCN2C1` [Compound 21], the results for the IC50 in test [1] and in test [2] were 39.8 nM and 3.16 nM, respectively.
Consider `O=c1nc(OCc2cc(F)c(Oc3ccc(Cl)c(C(F)(F)F)c3)c(F)c2)cc2n1CC1CCCN2C1` (stereo not shown) [Compound 14], for which the IC50 in test [1] was 6.31 nM; in test [2] it was 0.0398 nM.
For `O=c1nc(OCc2cc(F)c(F)cc2F)cc2n1CC1CCCN2C1` (stereo not shown) [Compound 3], in that order: 316 nM and 31.6 nM.
For `O=c1nc(OCc2cc(F)c(Oc3cccc(C(F)(F)F)c3)c(F)c2)cc2n1C[C@@H]1CCCN2C1` [Compound 26] the same measures were 3.98 nM and 0.0398 nM.
For `Cc1ccc(Oc2c(F)cc(COc3cc4n(c(=O)n3)C[C@H]3CN4CCO3)cc2F)cn1` [Compound 36], in that order: 12.6 nM and 0.126 nM.
For `O=c1nc(OCc2ccc(F)cc2F)cc2n1CC1CCCN2C1` (stereo not shown) [Compound 2], the figures for the IC50 in test [1] and in test [2] were 31.6 nM and 2.51 nM, respectively.
Consider `O=c1nc(OCc2cc(F)c(F)cc2F)cc2n1C[C@H]1CCCN2C1` [Compound 22], for which the IC50 in test [1] was 316 nM; in test [2] it was 31.6 nM.
For `Cc1ncc(Oc2c(F)cc(COc3cc4n(c(=O)n3)CC3CCCN4C3)cc2F)cn1` (stereo not shown) [Compound 8] the same measures were 15.8 nM and 0.316 nM.
For `O=c1nc(OCc2cc(F)c(Oc3cnc(C(F)(F)F)nc3)c(F)c2)cc2n1CC1CCCN2C1` (stereo not shown) [Compound 9] the same measures were 10 nM and 0.1 nM.
On to `Cc1ccc(Oc2c(F)cc(COc3cc4n(c(=O)n3)C[C@@H]3CCCN4C3)cc2F)cn1` [Compound 24], for which the IC50 is 7.94 nM in test [1] and 0.1 nM in test [2].
For `O=c1nc(OCc2cc(F)c(F)cc2F)cc2n1C[C@@H]1CN2CCO1` [Compound 34] the same measures were 501 nM and 63.1 nM.
For `Cc1ccc(Oc2c(F)cc(COc3cc4n(c(=O)n3)C[C@@H]3CN4CCO3)cc2F)cn1` [Compound 30], in that order: 10 nM and 0.158 nM.
For `O=c1nc(OCc2cc(F)c(Oc3ccnc(C(F)(F)F)c3)c(F)c2)cc2n1CC1CCCN2C1` (stereo not shown) [Compound 5] the same measures were 3.16 nM and 0.0316 nM.
Regarding `Cc1ccc(Oc2c(F)cc(COc3cc4n(c(=O)n3)CC3CCCN4C3)cc2F)cn1` (stereo not shown) [Compound 7], the IC50 in test [1] is 7.94 nM; in test [2], 0.0794 nM.
For `Cc1cc(Oc2c(F)cc(COc3cc4n(c(=O)n3)CC3CCCN4C3)cc2F)ccn1` (stereo not shown) [Compound 6] the same measures were 6.31 nM and 0.0631 nM.
For `O=c1nc(OCc2cc(F)c(Oc3cccc(OC(F)(F)F)c3)c(F)c2)cc2n1CC1CCCN2C1` (stereo not shown) [Compound 12], in that order: 15.8 nM and 0.316 nM.
For `O=c1nc(OCc2cc(F)cc(F)c2)cc2n1C[C@@H]1CN2CCO1` [Compound 39], the IC50 in test [1] is 100 nM. Further, in test [2], the “rhLp-PLA2 (pIC50)” value was determined as 8.4.
On to `O=c1nc(OCc2cc(F)cc(F)c2)cc2n1CC1CCCN2C1` (stereo not shown) [Compound 4], for which the values for the IC50 in test [1] and in test [2] were 39.8 nM and 3.16 nM, respectively.
Take `O=c1nc(OCc2cc(F)c(Oc3cccc(C(F)(F)F)c3)c(F)c2)cc2n1CC1CCCN2C1` (stereo not shown) [Compound 10]: the IC50 in test [1] is 10 nM; in test [2], 0.126 nM.
On to `O=c1nc(OCc2cc(F)c(Oc3ccc(C(F)(F)F)cc3)c(F)c2)cc2n1CC1CCCN2C1` (stereo not shown) [Compound 13], for which the IC50 in test [1] was 7.94 nM; in test [2] it was 0.0631 nM.
For `Cc1cc(Oc2c(F)cc(COc3cc4n(c(=O)n3)CC3CCCN4C3)cc2F)ccc1Cl` (stereo not shown) [Compound 11] the same measures were 7.94 nM and 0.0794 nM.
With `O=c1nc(OCc2cc(F)cc(F)c2)cc2n1C[C@H]1CCCN2C1` [Compound 27], the IC50 in test [1] was 50.1 nM. The “rhLp-PLA2 (pIC50)” value in test [2] turned out to be 8.5.
As to `O=c1nc(OCc2cc(F)cc(F)c2)cc2n1C[C@@H]1CN2CCO1` [Compound 33], the IC50 was 79.4 nM in test [1] and 3.98 nM in test [2].
For `O=c1nc(OCc2cc(F)c(Oc3ccc(OC(F)(F)F)c(Cl)c3)c(F)c2)cc2n1CC1CCCN2C1` (stereo not shown) [Compound 15] the same measures were 12.6 nM and 0.2 nM.
Consider `O=c1nc(OCc2cc(F)c(F)cc2F)cc2n1C[C@H]1CCCN2C1` [Compound 28], for which the “Thio-PAF (pIC50)” value in test [1] was 6.5. The IC50 in test [2] was 39.8 nM.
For `O=c1nc(OCc2cc(F)c(F)cc2F)cc2n1C[C@@H]1CN2CCO1` [Compound 40], in that order: 6.3 and 50.1 nM.
For `O=c1nc(OCc2cc(F)c(Oc3cccc(C(F)(F)F)c3)c(F)c2)cc2n1C[C@H]1CCCN2C1` [Compound 20], the IC50 was 3.16 nM in test [1] and 0.0316 nM in test [2].
For `Cc1ccc(Oc2c(F)cc(COc3cc4n(c(=O)n3)C[C@H]3CCCN4C3)cc2F)cn1` [Compound 18] the same measures were 7.94 nM and 0.0794 nM.
Turning to `O=c1nc(OCc2cc(F)c(Oc3ccc(C(F)(F)F)c(Cl)c3)c(F)c2)cc2n1CC1CCCN2C1` (stereo not shown) [Compound 16], the values for the IC50 in test [1] and in test [2] were 7.94 nM and 0.0794 nM, respectively.
